The test system of data set [1] is Nippostrongylus brasiliensis. The data set can be described thus: In vitro assay 2: Nippostrongylus brasiliensis (NIPOBR), acetylcholine esterase readout. The settings on record: read-out: activity (reduction of AChE compared to negative control); for inhibition at 1 µg/mL: 1 μg/ml; for inhibition at 10 µg/mL: 10 μg/ml. The procedure:
In Vitro Assay 2: Nippostrongylus brasiliensis (NIPOBR)
Adult Nippostrongylus brasiliensis were washed with saline buffer containing 100 U/ml penicillin, 0.1 mg/ml streptomycin and 2.5 μg/ml amphotericin B. Test compounds were dissolved in DMSO and worms were incubated in medium in a final concentration of 10 μg/ml (10 ppm) respectively 1 μg/ml (1 ppm). An aliquot of the medium was used to determine the acetylcholine esterase activity in comparison to a negative control. The principle of measuring acetylcholine esterase as readout for anthelmintic activity was described in Rapson et al (1986) and Rapson et al (1987).

The next data set has as its system Cooperia curticei. The settings on record: for mortality at 4 ppm / mortality at 20 ppm: Cooperia curticei, 120 h, read-out: activity (larval mortality).
The next data set concerns the target C. elegans Slo-1a (Caenorhabditis elegans, UniProt Q95V25). To be noted: pE50 (negative decadic logarithm of EC50), CHO cells expressing C. elegans Slo-1a, voltage sensitive dye.
The next data set relates to Haemonchus contortus. To be noted: 120 h, read-out: activity (larval mortality).
For data set [2], the system named is Dirofilaria immitis microfilariae. In words: In vitro assay 3: Dirofilaria immitis microfilariae (DIROIM L1), motility. The settings on record: 72 h, read-out: EC50 (reduction of motility), 72 h incubation.
Data set [3] has as its system Dirofilaria immitis third-stage larvae. The data set can be described thus: In vitro assay 4: Dirofilaria immitis (DIROIM L4), motility. To be noted: 72 h, read-out: EC50 (reduction of motility).

The values below come from US10889573B2, “Anthelmintic quinoline-3-carboxamide derivatives” (Bayer Animal Health GMBH, priority 2016, dated 2021).

Chain of C. elegans Slo-1a (Q95V25 whole entry): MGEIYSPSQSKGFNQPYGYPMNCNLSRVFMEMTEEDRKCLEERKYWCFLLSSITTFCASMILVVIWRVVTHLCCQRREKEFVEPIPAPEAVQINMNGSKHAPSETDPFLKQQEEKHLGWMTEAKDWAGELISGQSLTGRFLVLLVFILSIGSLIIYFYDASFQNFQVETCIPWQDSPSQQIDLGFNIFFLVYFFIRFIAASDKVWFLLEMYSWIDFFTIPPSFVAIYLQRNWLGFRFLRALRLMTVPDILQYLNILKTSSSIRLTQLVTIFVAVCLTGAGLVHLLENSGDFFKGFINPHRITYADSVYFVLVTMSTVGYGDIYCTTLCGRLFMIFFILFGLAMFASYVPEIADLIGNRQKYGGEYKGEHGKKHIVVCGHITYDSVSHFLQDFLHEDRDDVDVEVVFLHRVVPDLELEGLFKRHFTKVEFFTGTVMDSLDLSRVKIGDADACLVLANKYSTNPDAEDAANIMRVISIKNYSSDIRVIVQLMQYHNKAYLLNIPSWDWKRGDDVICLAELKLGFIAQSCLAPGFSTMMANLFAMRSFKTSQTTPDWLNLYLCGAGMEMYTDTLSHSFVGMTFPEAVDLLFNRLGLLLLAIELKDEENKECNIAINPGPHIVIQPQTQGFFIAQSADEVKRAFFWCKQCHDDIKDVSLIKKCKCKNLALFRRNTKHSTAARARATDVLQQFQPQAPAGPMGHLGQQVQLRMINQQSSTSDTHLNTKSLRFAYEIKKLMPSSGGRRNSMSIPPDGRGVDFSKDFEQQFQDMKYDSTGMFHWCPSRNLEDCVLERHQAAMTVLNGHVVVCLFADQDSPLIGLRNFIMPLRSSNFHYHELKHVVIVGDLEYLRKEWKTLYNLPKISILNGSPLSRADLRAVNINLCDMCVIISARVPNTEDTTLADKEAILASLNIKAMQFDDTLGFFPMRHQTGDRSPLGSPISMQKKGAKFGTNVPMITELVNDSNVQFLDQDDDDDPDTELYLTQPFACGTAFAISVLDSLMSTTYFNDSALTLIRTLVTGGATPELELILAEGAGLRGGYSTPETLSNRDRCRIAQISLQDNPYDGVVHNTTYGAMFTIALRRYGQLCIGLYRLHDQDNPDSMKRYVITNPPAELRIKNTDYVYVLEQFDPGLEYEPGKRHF
Procedure for C. elegans Slo-1a: In Vitro Assay 1: C. elegans Slo-1a—Action at a Recombinant C. elegans Cell Line
Cells were cultured at 37° C. and 5% CO2 in MEMalpha with Gutamax I (Invitrogen, Nr.: 32571), supplemented with 10% (v/v) heat inactivated fetal bovine serum (Invitrogen, Nr.: 10500), G418 (1 mg/ml, Invitrogen, Nr.: 10131). Cells were detached using Accutase (Sigma, Nr.: A6964).
Membrane Potential Measurements
Laboratory compound testing was performed on 384-well microtiter plates (MTPs, Greiner, Nr.: 781092). 8000 cells/well were plated onto 384-well MTPs and cultured for 20 to 24 hours at 37° C. and 5% CO2. After removal of the cell culture medium, the cells were washed once with tyrode (150 mM NaCl, 0.3 mM KCl, 2 mM CaCl2, 1 mM MgCl2, 0.8 mM NaH2PO4, 5 mM Glucose, 28 mM Hepes, pH 7.4) and then loaded with the voltage sensitive dye of the Membrane Potential Assay Kit diluted in tyrode for 1 h at room temperature.
After starting the measurement of fluorescence using a FLIPR Tetra (Molecular Devices, Exc. 510-545 nm, Emm. 565-625 nm), test compounds were added followed by the addition of KCl tyrode (final assay concentration: 70 mM KCl, 2 mM CaCl2, 1 mM MgCl2, 0.8 mM NaH2PO4, 5 mM Glucose, 28 mM Hepes, pH 7.4, including the voltage sensitive dye). The measurement was completed after 7 minutes.
The data were evaluated by using the ActivityBase XLfit software (IDBS) for curve fitting and calculation of the half-maximal effective concentration (EC50) and are reported as negative decadic logarithm (pE50).
Procedure for Cooperia curticei: In Vitro Assay 6: Cooperia curticei (COOPCU L3)
Solvent: dimethyl sulfoxide
Approximately 40 nematode larvae (Cooperia curticei) are transferred into a test tube containing the compound solution.
After 5 days percentage of larval mortality is recorded. 100% efficacy means all larvae are killed; 0% efficacy means no larvae are killed.
Procedure for Haemonchus contortus: In Vitro Assay 7: Haemonchus contortus (HAEMCO L3)
Solvent: dimethyl sulfoxide
Approximately 40 larvae of the red stomach worm (Haemonchus contortus) are transferred into a test tube containing compound solution.
After 5 days the percentage of larval mortality is recorded. 100% efficacy means all larvae are killed, 0% efficacy means no larvae are killed.

Consider `CC(=O)N(C)Cc1c(C(=O)N[C@H]2CCOc3ccccc32)cnc2c(-c3cc(Cl)cc(Cl)c3)cccc12` [Example 631], for which, in data set [1], the inhibition at 1 µg/mL was greater than 80%. Also, the mortality at 4 ppm with Cooperia curticei and in the data set on Haemonchus contortus was 100% in each case. The mortality at 20 ppm in the data set on Cooperia curticei and with Haemonchus contortus was 100% throughout. Moreover, the figures for the EC50 (on C. elegans Slo-1a; in data set [2]) were less than 3.16 nM and less than 10 µg/mL, respectively.
With `O=C(N[C@H]1CCOc2ccccc21)c1cnc2c(-c3cc(Cl)sc3Cl)cccc2c1N1CCOCC1` [Example 441], in data set [1], the inhibition at 1 µg/mL is greater than 80%. Besides, the values for the EC50 (at C. elegans Slo-1a; in data set [2]; in data set [3]) were less than 3.16 nM, less than 0.1 µg/mL and less than 0.1 µg/mL, respectively.
For `C[C@H]1CN(c2c(C(=O)N[C@H]3CCOc4ccccc43)cnc3c(-c4cc(Cl)cc(Cl)c4)cccc23)CCO1` [Example 290], the inhibition at 1 µg/mL in data set [1] was greater than 80%. In addition, the EC50 (usually the concentration giving half of the maximal effect) was less than 3.16 nM on C. elegans Slo-1a, less than 0.1 µg/mL in data set [2] and less than 0.1 µg/mL in data set [3].
Regarding `COc1cc(-c2cccc3c(N(C)C)c(C(=O)N[C@H]4CCOc5ccccc54)cnc23)ccn1` [Example 64], the inhibition at 10 µg/mL in data set [1] is greater than 80%. The EC50 on C. elegans Slo-1a is 3.16 to 31.6 nM; in data set [2], less than 0.1 µg/mL; in data set [3], less than 0.1 µg/mL.
With `CN(C)c1c(C(=O)N[C@H]2CCOc3ccccc32)cnc2c(-c3c(F)cccc3F)cccc12` [Example 277], the inhibition at 1 µg/mL in data set [1] is greater than 80%. Moreover, the EC50 at C. elegans Slo-1a was less than 3.16 nM; in data set [2], less than 0.1 µg/mL; in data set [3], less than 0.1 µg/mL.
Consider `COCCNc1c(C(=O)N[C@H]2CCc3ccccc32)cnc2c(-c3cc(Cl)cc(Cl)c3)cccc12` [Example 298], for which, in the data set on Cooperia curticei, the mortality (usually the percentage killed) at 20 ppm amounted to 80%. In addition, the EC50 on C. elegans Slo-1a was less than 3.16 nM.
Consider `O=C(N[C@H]1CCOc2ccccc21)c1cnc2c(-c3ccc(F)c(Cl)c3)cccc2c1N1CCOCC1` [Example 190], for which the “activity (larval mortality)” value with Cooperia curticei (0.8 ppm, after 5 days) is on record as 80%.
Regarding `CN(C)c1c(C(=O)N[C@H]2CCOc3ccccc32)cnc2c(-c3ccc(F)cc3Cl)cc(F)cc12` [Example 180], the EC50 was 3.16 to 31.6 nM on C. elegans Slo-1a and less than 0.1 µg/mL in data set [2]. Moreover, in the data set with Haemonchus contortus, the mortality at 20 ppm was 80%.
With `O=C(N[C@H]1CCOc2ccccc21)c1cnc2c(-c3sccc3Cl)cccc2c1N1CCOCC1` [Example 442], the EC50 at C. elegans Slo-1a was less than 3.16 nM; in data set [2], less than 0.1 µg/mL; in data set [3], less than 0.1 µg/mL.
On to `O=C(N[C@H]1CCOc2ccccc21)c1cnc2c(-c3c(F)cccc3F)c(F)ccc2c1N1CCOCC1` [Example 278], for which the EC50 on C. elegans Slo-1a was less than 3.16 nM; in data set [2], less than 0.1 µg/mL; in data set [3] it was less than 0.1 µg/mL.
Turning to `NC(=O)Cc1c(C(=O)N[C@H]2CCOc3ccccc32)cnc2c(-c3cc(Cl)cc(Cl)c3)cccc12` [Example 360, 4-(2-amino-2-oxoethyl)-8-(3,5-dichlorophenyl)-N-[(4S)-3,4-dihydro-2H-chromen-4-yl]quinoline-3-carboxamide], the inhibition at 1 µg/mL in data set [1] was greater than 80%. The concentration giving a half-maximal response (EC50) on C. elegans Slo-1a was 3.16 to 31.6 nM; in data set [2], less than 0.1 µg/mL; in data set [3], less than 0.1 µg/mL.
With `Cc1cc(C)cc(-c2cccc3c(Cl)c(C(=O)N[C@H]4CCCc5ccccc54)cnc23)c1` [Example 1, 4-chloro-8-(3,5-dimethylphenyl)-N-[(1S)-1,2,3,4-tetrahydronaphthalen-1-yl]quinoline-3-carboxamide], the EC50 at C. elegans Slo-1a is 31.6 to 316 nM; in data set [2], less than 0.1 µg/mL; in data set [3], less than 1 µg/mL.
In the same order, the values of `CN(C)c1c(C(=O)NC2CSc3ccccc32)cnc2c(-c3cc(Cl)cc(Cl)c3)cccc12` (centres unmarked) [Example 493] are 3.16 to 31.6 nM, less than 0.1 µg/mL and less than 0.1 µg/mL.
For the compound `N#CCc1c(C(=O)N[C@H]2CCOc3ccccc32)cnc2c(-c3cc(Cl)cc(Cl)c3)cccc12` [Example 355, 4-(cyanomethyl)-8-(3,5-dichlorophenyl)-N-[(4S)-3,4-dihydro-2H-chromen-4-yl]quinoline-3-carboxamide], the inhibition at 1 µg/mL in data set [1] was greater than 80%. Moreover, the EC50 is less than 3.16 nM on C. elegans Slo-1a, less than 0.1 µg/mL in data set [2] and less than 0.1 µg/mL in data set [3].
As to `COC(=O)CNc1c(C(=O)N[C@H]2CCOc3ccccc32)cnc2c(-c3cc(Cl)cc(Cl)c3)cccc12` [Example 375], the inhibition at 1 µg/mL in data set [1] was greater than 80%. In addition, the EC50 on C. elegans Slo-1a was 3.16 to 31.6 nM; in data set [2], less than 0.1 µg/mL.
For the compound `CCc1c(C(=O)N[C@H]2CCOc3ccccc32)cnc2c(-c3cccc(OC(F)(F)F)c3)cccc12` [Example 570], in data set [1], the inhibition at 1 µg/mL was greater than 80%. The EC50 on C. elegans Slo-1a is 3.16 to 31.6 nM; in data set [2], less than 0.1 µg/mL; in data set [3], less than 0.1 µg/mL.
On to `C=Cc1c(C(=O)N[C@H]2CCOc3ccccc32)cnc2c(-c3cc(Cl)cc(Cl)c3)cccc12` [Example 478], for which, in data set [1], the inhibition at 1 µg/mL is greater than 80%. Also, the EC50 at C. elegans Slo-1a was less than 3.16 nM; in data set [2] it was less than 0.1 µg/mL; in data set [3] it was less than 0.1 µg/mL.
As for `Cc1ccc(C)c(-c2cccc3c(N(C)C)c(C(=O)N[C@H]4CCOc5ccccc54)cnc23)c1` [Example 471], the inhibition at 1 µg/mL in data set [1] is greater than 80%. For the same compound, the mortality at 20 ppm with Cooperia curticei was 80%. The EC50 at C. elegans Slo-1a was 3.16 to 31.6 nM; in data set [2], less than 0.1 µg/mL. In addition, the mortality at 4 ppm in the data set with Haemonchus contortus was found to be 80%.
For the compound `O=C(NC1CCOc2ccccc21)c1cnc2c(-c3cc(Cl)cc(Cl)c3)cccc2c1N1CC2CCC(C1)O2` (centres unmarked) [Example 302], in data set [1], the inhibition at 1 µg/mL was greater than 80%. For the same compound, the EC50 at C. elegans Slo-1a was less than 3.16 nM; in data set [2] it was less than 10 µg/mL.
As to `CN(C)c1c(C(=O)N[C@H]2CCOc3ccccc32)cnc2c(-c3cc(C#N)cc(Cl)c3Cl)cccc12` [Example 624], in data set [1], the inhibition at 1 µg/mL was greater than 80%. For the same compound, the mortality at 4 ppm in the data set with Cooperia curticei was 80%. Moreover, the mortality at 20 ppm in the data set with Cooperia curticei is 100%; with Haemonchus contortus, 80%. Also, the results for the EC50 (at C. elegans Slo-1a; in data set [2]) were less than 3.16 nM and less than 0.1 µg/mL, respectively.
With `O=C(O)CNc1c(C(=O)N[C@H]2CCOc3ccccc32)cnc2c(-c3cc(Cl)cc(Cl)c3)cccc12` [Example 276], the inhibition at 1 µg/mL in data set [1] was greater than 80%. The mortality at 20 ppm worked out at 90% in the data set on Cooperia curticei and 80% in the data set on Haemonchus contortus. Further, the EC50 on C. elegans Slo-1a was 31.6 to 316 nM; in data set [2], less than 0.1 µg/mL.
`O=C(N[C@H]1CCOc2ccccc21)c1cnc2c(-c3cc(Cl)c(F)c(Cl)c3)cc(F)cc2c1N1CCOCC1` [Example 43]: the inhibition at 1 µg/mL in data set [1] was greater than 80%. In data set [1], the inhibition at 10 µg/mL was greater than 80%. Also, the EC50 on C. elegans Slo-1a was less than 3.16 nM; in data set [2] it was less than 0.1 µg/mL; in data set [3], less than 0.1 µg/mL.
For the compound `O=C(N[C@H]1CCCc2ccccc21)c1cnc2c(-c3cc(Cl)cc(Cl)c3)cccc2c1Cl` [Example 2], the EC50 on C. elegans Slo-1a was 3.16 to 31.6 nM; in data set [2], less than 10 µg/mL; in data set [3], less than 1 µg/mL.
`O=C(N[C@H]1CCOc2ccccc21)c1cnc2c(-c3cccc(Cl)c3Cl)cccc2c1C1=CCOCC1` [Example 653]: the inhibition at 1 µg/mL in data set [1] was greater than 80%. Further, the figures for the EC50 (at C. elegans Slo-1a; in data set [2]) were less than 3.16 nM and less than 0.1 µg/mL, respectively.
Consider `O=C(N[C@H]1CCOc2ccccc21)c1cnc2c(-c3cc(Cl)cc(Cl)c3)cccc2c1N1CCC[C@H]1C(=O)O` [Example 261, 1-{8-(3,5-dichlorophenyl)-3-[(4S)-3,4-dihydro-2H-chromen-4-ylcarbamoyl]quinolin-4-yl}-L-proline], for which the inhibition at 1 µg/mL in data set [1] is greater than 80%. Also, the EC50 in data set [2] and in data set [3] was less than 0.1 µg/mL in each case.
In the case of `O=C(N[C@H]1CCc2ccccc21)c1cnc2c(-c3cc(Cl)cc(Cl)c3)cccc2c1N1CC(F)C1` [Example 119], in data set [1], the inhibition at 1 µg/mL was greater than 80%. The inhibition at 10 µg/mL in data set [1] was greater than 80%. Besides, the values for the EC50 (on C. elegans Slo-1a; in data set [2]; in data set [3]) were 3.16 to 31.6 nM, less than 0.1 µg/mL and less than 0.1 µg/mL, respectively.
With `N#Cc1c(C(=O)N[C@H]2CCOc3ccccc32)cnc2c(-c3cc(Cl)cc(Cl)c3)cccc12` [Example 362, 4-cyano-8-(3,5-dichlorophenyl)-N-[(4S)-3,4-dihydro-2H-chromen-4-yl] quinoline-3-carboxamide], the inhibition at 1 µg/mL in data set [1] was greater than 80%. Besides, the inhibition at 10 µg/mL in data set [1] was greater than 80%. Besides, the EC50 in data set [2] and in data set [3] was less than 0.1 µg/mL each time.
For `O=C(N[C@H]1CCOc2ccccc21)c1cnc2c(-c3cc(Cl)cc(Cl)c3)cccc2c1N1CC[C@@H](O)C1` [Example 283], the inhibition at 1 µg/mL in data set [1] was greater than 80%. Besides, the EC50 is less than 3.16 nM on C. elegans Slo-1a, less than 0.1 µg/mL in data set [2] and less than 0.1 µg/mL in data set [3].
As for `CN(C)c1c(C(=O)N[C@H]2CCOc3ccccc32)cnc2c(-c3ncccc3F)cccc12` [Example 62], the inhibition at 10 µg/mL in data set [1] was greater than 80%. In addition, the EC50 was 31.6 to 316 nM on C. elegans Slo-1a, less than 1 µg/mL in data set [2] and less than 0.1 µg/mL in data set [3].
As for `CN(C)c1c(C(=O)NC2COCc3ccccc32)cnc2c(-c3cc(Cl)cc(Cl)c3)cccc12` (centres unmarked) [Example 581], in data set [1], the inhibition at 1 µg/mL was greater than 80%. The results for the EC50 (at C. elegans Slo-1a; in data set [2]) were 31.6 to 316 nM and less than 0.1 µg/mL, respectively.
